We go through 35 compounds from US12552753B2, “Methods and compositions for targeting Tregs using CCR8 inhibitors” (Nanjing Immunophage Biomedical Co., Ltd., priority 2020, dated 2026).

Molecules are shown by their SMILES. Where a name gives a salt, the structure may show the parent alone.

CCR8, sequence (P51685 whole entry, the tested form may be a part): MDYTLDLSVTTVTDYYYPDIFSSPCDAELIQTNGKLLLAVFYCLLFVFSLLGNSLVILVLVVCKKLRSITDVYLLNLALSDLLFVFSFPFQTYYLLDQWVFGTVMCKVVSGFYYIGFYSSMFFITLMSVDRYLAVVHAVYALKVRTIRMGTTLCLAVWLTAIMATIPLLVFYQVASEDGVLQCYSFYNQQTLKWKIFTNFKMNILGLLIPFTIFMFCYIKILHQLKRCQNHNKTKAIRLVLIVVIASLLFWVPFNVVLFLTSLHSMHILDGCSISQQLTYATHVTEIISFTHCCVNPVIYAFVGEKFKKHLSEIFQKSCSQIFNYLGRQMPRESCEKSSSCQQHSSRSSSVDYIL

One experiment has as its target CCR8 (Homo sapiens, UniProt P51685). As to the kind of experiment: Tango assay (Tango-CCR8-Gal4-CHO-K1 cells, CCL1-stimulated, ONE-Glo luminescence). As to conditions: Tango Assay IC50, Inhibition of CCR8 Tango cell in vitro.
As for `Cc1cc(S(=O)(=O)N[C@H](C)C2CCNCC2)ccc1NC(=O)Nc1ccccc1` [Compound 236A, (R)-3-methyl-4-(3-phenylureido)-N-(1-(piperidin-4-yl)ethyl)benzenesulfonamide hydrochloride], the IC50 was 158 nM.

Compound `Cc1cc(S(=O)(=O)N[C@H](C)C2CCNCC2)ccc1NC(=O)c1cccc2c1CCC2` [Compound 310, (R)-N-(2-methyl-4-(N-(1-(piperidin-4-yl)ethyl)sulfamoyl)phenyl)-2,3-dihydro-1H-indene-4-carboxamide hydrochloride] gave an IC50 of 5 nM.

For the compound `COC(=O)[C@@H](NS(=O)(=O)c1ccc(NC(=O)c2ccccc2C)c2ccccc12)C1CCCCC1` [Compound 49, (S)-methyl 2-cyclohexyl-2-(4-(2-methylbenzamido)naph-thalene-1-sulfonamido)acetate], the IC50 is 520 nM.

As for `Cc1cc(S(=O)(=O)N[C@H](C)C2CCN(C)CC2)ccc1NC(=O)C12CCC(CC1)CC2` [Compound 295, (R)-N-(2-methyl-4-(N-(1-(1-methylpiperidin-4-yl)ethyl)sulfamoyl)phenyl)bicyclo [2.2.2]oct-ane-1-carboxamide], inhibition was half-maximal at 4.6 nM (IC50).

`CC(NS(=O)(=O)c1ccc2[nH]c(=O)ccc2c1)C1CC2CCC1CC2` (centres unmarked) [Compound 284, N-(1-(bicyclo[2.2.2]octan-2-yl)ethyl)-2-oxo-1,2-dihydroquinoline-6-sulfonamide] gave an IC50 greater than 100000 nM.

For the compound `CC(NS(=O)(=O)c1ccc(-c2nn[nH]n2)c2ccccc12)C1CCCCC1` (centres unmarked) [Compound 150, N-(1-cyclohexylethyl)-4-(2H-tetrazol-5-yl)naphthalene-1-sulfonamide], the IC50 was greater than 10000 nM.

Regarding `Cc1ccccc1C(=O)Nc1ccc(S(=O)(=O)N[C@H](C)C2CCN(C)CC2)c(Cl)c1Cl` [Compound 275, (R)-N-(2,3-dichloro-4-(N-(1-(1-methylpiperidin-4-yl)ethyl)sulfamoyl)phenyl)-2-methylbenzamide], half-maximal inhibition (IC50) required 46 nM.

Consider `CC(NS(=O)(=O)c1ccc2[nH]cnc2c1)C1CCCCC1` (centres unmarked) [Compound 78, N-(1-cyclohexylethyl)-1H-benzo[d]imidazole-5-sulfonamide], for which the IC50 is greater than 10000 nM.

The compound `Cc1ccccc1C(=O)Nc1ccc(S(=O)(=O)Nc2ccc3c(c2)C(N(C)C(=O)CN(C)C)CCC3)c2ccccc12` (centres unmarked) [Compound 97, N-(4-(N-(8-(2-(dimethylamino)-N-methylacetamido)-5,6,7,8-tetrahydronaphthalen-2-yl)sulfamoyl)naphthalen-1-yl)-2-methylbenzamide] displayed an IC50 greater than 10000 nM.

Compound `Cc1ccccc1C(=O)Nc1ccc(S(=O)(=O)NC(C)c2cccc(C(=O)O)c2)cc1` (centres unmarked) [Compound 54, 3-(1-(4-(2-methylbenzamido)phe-nylsulfonamido)ethyl) benzoic acid] showed a half-maximal inhibitory concentration (IC50) greater than 10000 nM.

`Cc1ccccc1C(=O)Nc1cc(C)c(S(=O)(=O)N[C@H](C)C2CCNCC2)cc1Cl` [Compound 187A, (R)-N-(2-chloro-5-methyl-4-(N-(1-(piperidin-4-yl)ethyl)sulfamoyl)phen-yl)-2-methylbenzamide hydrochloride]: the IC50 is 6.3 nM.

Regarding `Cc1ccccc1C(=O)Nc1ccc(S(=O)(=O)NC(C)C2CC3CCC2CC3)c2ccccc12` (centres unmarked) [Compound 77, N-(4-(N-(1-(bicyclo[2.2.2]octan-2-yl)ethyl)sulfamoyl)naph-thalen-1-yl)-2-methylbenzamide], the IC50 was determined as 0.4 nM.

`Cc1cc(S(=O)(=O)N[C@H](C)C2CCNCC2)c(F)cc1NC(=O)c1ccccc1C` [Compound 175, (R)-N-(5-fluoro-2-methyl-4-(N-(1-(piperidin-4-yl)ethyl)sulfamoyl)phen-yl)-2-methylbenzamide] yielded an IC50 of 26 nM.

`Cc1cc(S(=O)(=O)N[C@H](C)C2CCNCC2)ccc1NC(=O)c1ccsc1` [Compound 211A, (R)-N-(2-methyl-4-(N-(1-(piperidin-4-yl)ethyl)sulfamoyl)phenyl)thiophene-3-carboxamide hydrochloride] came in with an IC50 of 96 nM.

As for `Cc1cc(S(=O)(=O)N[C@H](C)C2CCNCC2)ccc1NC(=O)C1CCC1` [Compound 254, (R)-N-(2-methyl-4-(N-(1-(piperidin-4-yl)ethyl)sulfamoyl)phenyl) cyclobutanecarboxamide], the IC50 was greater than 100000 nM.

As to `Cc1ccccc1NC(=O)c1ccc(S(=O)(=O)N[C@H](C)C2CCNCC2)cc1C` [Compound 113A, (R)-2-methyl-4-(N-(1-(piperidin-4-yl)ethyl)sulfamoyl)-N-(o-tolyl)benzamide], the IC50 worked out at 388 nM.

With `COc1cccc(C(C)NS(=O)(=O)c2ccc(NC(=O)c3ccccc3C)c3ccccc23)c1` (centres unmarked) [Compound 73, N-(4-(N-(1-(3-methoxyphenyl)ethyl)sul-famoyl)naphthalen-1-yl)-2-methylbenzamide], the IC50 is 764 nM.

In turn, `Cc1ccccc1C(=O)Nc1ccc(S(=O)(=O)N[C@H](C)C2CCN(C)CC2)cc1C#N` [Compound 221, (R)-N-(2-cyano-4-(N-(1-(1-methylpiperidin-4-yl)ethyl)sulfamoyl)phenyl)-2-methylbenzamide] registered an IC50 of 24 nM.

Consider `CC(=O)N1CCC(NS(=O)(=O)c2cc(Cl)c(NC(=O)c3ccccc3C)cc2F)CC1` [Compound 312, N-(4-(N-(1-acetylpiperidin-4-yl)sulfamoyl)-2-chloro-5-fluorophenyl)-2-methylbenzamide], for which the IC50 was determined as 301 nM.

Take `CCCC(=O)N1CCCC(C(=O)NS(=O)(=O)c2ccc(NC(=O)c3ccccc3C)c3ccccc23)C1` (centres unmarked) [Compound 9, 1-butyryl-N-((4-(2-methylbenzamido)naph-thalen-1-yl)sulfonyl)piperidine-3-carboxamide]: the IC50 was greater than 10000 nM.

Consider `Cc1ccccc1C(=O)Nc1ccc(S(=O)(=O)Nc2ccc3c(c2)C(N(C)CCN(C)C)CCC3)c2ccccc12` (centres unmarked) [Compound 99, N-(4-(N-(8-((2-(dimethylamino)ethyl)(methyl)amino)-5,6,7,8-tetrahydronaphthalen-2-yl)sulfamoyl)naphthalen-1-yl)-2-methylbenzamide], for which the IC50 is greater than 10000 nM.

`Cc1ccccc1C(=O)Nc1ccc(S(=O)(=O)NC2CCOc3ccccc32)c2ccccc12` (centres unmarked) [Compound 29, N-(4-(N-(chroman-4-yl)sulfamoyl)naphthalen-1-yl)-2-methylbenzamide] registered an IC50 of 26 nM.

For the compound `CC(NS(=O)(=O)c1ccc2c(c1)CCC2NC(=O)c1ccccc1)C1CCCCC1` (centres unmarked) [Compound 88, N-(5-(N-(1-cyclohexylethyl)sulfam-oyl)-2,3-dihydro-1H-inden-1-yl)benzamide], the IC50 stood at 1100 nM.

Consider `Cc1ccccc1C(=O)Nc1ccc(S(=O)(=O)NC(C)C2CCCN(C(=O)[C@H](C)N)C2)c2ccccc12` (single isomer, unassigned) [Compound 158D], for which the IC50 amounted to 1020 nM.

For `Cc1cc(S(=O)(=O)N[C@H](C)C2CCN(C(=O)OC(C)(C)C)CC2)c(F)cc1NC(=O)c1ccccc1C` [Compound 174, (R)-tert-butyl 4-(1-(2-fluoro-5-methyl-4-(2-methylbenzamido)phen-ylsulfonamido)ethyl)pi-peridine-1-carboxylate], the IC50 came to 914 nM.

`Cc1ccccc1C(=O)Nc1ccc(S(=O)(=O)Nc2ccc3c(c2)N(CCN(C)C)CCO3)c2ccccc12` [Compound 23, N-(4-(N-(4-(2-(dimethylamino)ethyl)-3,4-dihydro-2H-benzo[b][1,4]oxazin-6-yl)sulfamoyl)naphthalen-1-yl)-2-methylbenzamide] came in with an IC50 greater than 10000 nM.

The compound `Cc1cc(S(=O)(=O)NC(C)C2CC3CCC2CC3)c(C)cc1NC(=O)c1ccccc1C` (centres unmarked) [Compound 170, N-(4-(N-(1-(bicyclo[2.2.2]octan-2-yl)ethyl)sulfamoyl)-2,5-dimethylphenyl)-2-methylbenzamide] registered an IC50 of 3.7 nM.

In turn, `Cc1ccccc1C(=O)Nc1ccc(S(=O)(=O)Nc2ccc3c(c2)CN(C(=O)CN(C)C)C3)c2ccccc12` [Compound 37, N-(4-(N-(2-(2-(dimethylamino)acetyl)isoindolin-5-yl)sulfamoyl)naphthalen-1-yl)-2-methylbenzamide] gave an IC50 greater than 10000 nM.

Compound `Cc1ccccc1C(=O)Nc1ccc(S(=O)(=O)NC(C)C2CCCN(C(=O)CN)C2)c2ccccc12` (single isomer, unassigned) [Compound 156D, N-(4-(N-(1-(1-(2-aminoacetyl)piperidin-3-yl)ethyl)sulfamoyl)naph-thalen-1-yl)-2-methylbenzamide] had an IC50 greater than 10000 nM.

As for `Cc1ccccc1C(=O)Nc1ccc(S(=O)(=O)NC(C)C2CCCCC2)c2ccccc12` (centres unmarked) [Compound 57, N-(4-(N-(1-cyclohexylethyl)sulfamo-yl)naphthalen-1-yl)-2-methylbenzamide], it took 3 nM to reach half-maximal inhibition (IC50).

`Cc1ccccc1C(=O)Nc1ccc(S(=O)(=O)NC(C)C2CCCN(C(=O)[C@H](C)NC(=O)OC(C)(C)C)C2)c2ccccc12` (single isomer, unassigned) [Compound 157A]: the IC50 is greater than 10000 nM.

`COc1cc(S(=O)(=O)NC(C)C2CC3CCC2CC3)c(C)cc1NC(=O)c1ccccc1C` (centres unmarked) [Compound 173, N-(4-(N-(1-(bicyclo[2.2.2]octan-2-yl)ethyl)sulfamoyl)-2-methoxy-5-methylphenyl)-2-methylbenzamide] came in with an IC50 of 22 nM.

Take `Cc1cc(S(=O)(=O)N[C@H](C)C2CCNCC2)ccc1NC(=O)c1ccc(Cl)cc1C` [Compound 256A, (R)-4-chloro-2-methyl-N-(2-methyl-4-(N-(1-(piperidin-4-yl)ethyl)sulfamoyl)phenyl)benzamide hydrochloride]: inhibition was half-maximal at 2 nM (IC50).

The compound `Cc1ccccc1C(=O)Nc1ccc(S(=O)(=O)NC(C)C2CC3CCC2CC3)c(C)c1C` (centres unmarked) [Compound 182, N-(4-(N-(1-(bicyclo[2.2.2]octan-2-yl)ethyl)sulfamoyl)-2,3-dimethylphenyl)-2-methylbenzamide] showed an IC50 of 61 nM.

Still in this experiment, the particulars now being: read-out: Tango Assay IC50, Inhibition of CCR8 Tango cell in vitro.
Regarding `COC1CCC([C@@H](C)NS(=O)(=O)c2ccc(NC(=O)c3ccccc3C)c(C)c2)CC1` (single isomer, unassigned) [Compound 293A, N-(4-(N-(1-(4-methoxycyclohexyl)ethyl)sulfamoyl)-2-methylphenyl)-2-methylbenzamide], the IC50 amounted to 24 nM.
